Experiments:
[1] = 3 months of continuous daily administration to healthy cycling volunteers; assessment of ovarian hormones, follicular development, endometrial histology, bleeding patterns; format: in vivo, women; conditions: one patient, 10 mg/day, missed 2 days of drug (days 1 and 2) in third treatment cycle
Protocol: For that purpose, health cycling volunteers received 3 months of continuous daily administration of ulipristal acetate (2.5, 5 or 10 mg) or placebo.
Assessment of ovarian hormones, follicular development, endometrial histology, and menstrual bleeding patterns was carried out during the third month of treatment.
This made the inventors think that ulipristal acetate could be used as a contraceptive which could be taken on-demand, rather than everyday as any hormonal contraceptive pill.

[2] = single dose of 50 mg, within 72 hours after unprotected intercourse; cited from earlier work
[3] = Multiple intakes of ulipristal acetate within a menstrual cycle after declared intercourse (pregnancy outcome); format: in vivo; conditions: 30 mg after a declared intercourse, twice during a menstrual cycle; several women (5 in the table)
Protocol: Multiple Intakes of Ulipristal Acetate within a Menstrual Cycle
Several women received ulipristal acetate (30 mg) after a declared intercourse, twice during a menstrual cycle.

For CC(=O)O[C@]1(C(C)=O)CC[C@H]2[C@@H]3CCC4=CC(=O)CCC4=C3[C@@H](c3ccc(N(C)C)cc3)C[C@@]21C [ulipristal acetate, 17α-acetoxy-11β-[4-N,N-dimethylamino-phenyl)-19-norpregna-4,9-diene-3,20-dione], the “luteal activity or ovulation” value [1] is given as “no sign of luteal activity or ovulation”, the “safety and efficacy as emergency contraception” value [2] is given as “safe and efficacious” and the pregnancy [3] is given as “No pregnancy was observed”.

Reference: patent US9283233B2, “Method for on-demand contraception” (LABORATOIRE HRA PHARMA, priority 2009, dated 2016)
